Test results: paper PMC10281575, “PfCRT mutations conferring piperaquine resistance in falciparum malaria shape the kinetics of quinoline drug binding and transport” (PLOS Pathogens, 2023)
“And” between values parts separate entries of the source, which are not always exact repeats. Equal entries are not always repeated. Where two headings read alike, the source gives them in different places.

Target: T1, PfCRT^Dd2_F145I (Plasmodium falciparum, UniProt Q8IBZ9, A220S/F145I/I356T/K76T/M74I/N326S/N75E/Q271E/R371I)
T1 construct: expressed in transfected cells; host or cells: Xenopus laevis oocytes injected with in vitro transcribed RNA (pSP64T)
T1 sequence (Q8IBZ9 1-424 M74I/N75E/K76T/F145I/A220S/Q271E/N326S/I356T/R371I): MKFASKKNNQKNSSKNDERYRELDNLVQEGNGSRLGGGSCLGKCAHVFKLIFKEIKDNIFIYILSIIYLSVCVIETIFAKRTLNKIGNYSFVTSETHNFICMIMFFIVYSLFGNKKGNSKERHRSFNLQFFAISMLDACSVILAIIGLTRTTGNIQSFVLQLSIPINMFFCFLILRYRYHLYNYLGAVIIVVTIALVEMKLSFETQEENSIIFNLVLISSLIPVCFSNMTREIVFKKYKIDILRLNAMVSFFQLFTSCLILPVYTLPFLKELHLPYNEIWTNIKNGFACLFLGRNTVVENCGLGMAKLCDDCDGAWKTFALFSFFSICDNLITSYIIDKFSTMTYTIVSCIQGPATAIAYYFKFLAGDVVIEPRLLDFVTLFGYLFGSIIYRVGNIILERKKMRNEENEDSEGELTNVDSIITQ
Experiment: Competition kinetics of drug transport (radiolabeled substrate plus cold inhibitor), PfCRT^Dd2_F145I-expressing oocytes
Assay type: cell-based
Conditions: for PfCRTDd2_F145I-mediated CQ transport: 500 µM CQ; for Vmax, maximal velocity of drug transport: global fit; for β, partiality factor: factor on transport of the labeled drug by the other drug
Description: To further characterize the kinetic relationship between CQ and PPQ, we performed a series of competition reactions. To this end, water-injected oocytes and PfCRT-expressing oocytes were incubated in medium containing one of seven concentrations of radio-labeled CQ and one of six concentrations of cold PPQ for 60 min before the amount of radio-labeled CQ uptake was determined. The rate of PfCRT-mediated CQ uptake was calculated for each condition by subtracting the corresponding value obtained for water-injected oocytes from those of PfCRT-expressing oocytes. The results were analyzed as a function of the CQ concentration (Fig 4A) and 16 different models of substrate competition were globally fit to the data by the least-squares method, using Python. The models were ranked, according to their Akaike information criterion difference (ΔAICC) and their Akaike weight (Fig 4B), with the most plausible model being the one with the lowest AICC (ΔAICC = 0) and the highest Akaike weight.
A complementary set of experiments was undertaken to investigate the kinetic mechanism by which PfCRT^Dd2_F145I accepts CQ and PPQ (Fig 6). […] These included a global fit of the substrate competition data to the 16 kinetic models (Fig 6), analysis of the secondary plots (Vmax,app and Vmax,app/KM,app as a function of the inhibitor concentration) (Fig 7A), a fractional velocity plot analysis (Fig 7B) and a comparison of the experimental data with the modelled data using the noncompetitive inhibition equation (Fig 7C to 7F). […] The fractional velocity plot illustrated the partial character of the noncompetitive inhibition mechanism by yielding a partiality factor β^CQ = 0.31 ± 0.04, by which PPQ reduces the transport velocity of CQ (Fig 7B). […] A 3D model of the kinetics between PfCRT^Dd2_F145I, CQ and PPQ, and analyses of the residuals as a function of substrate and inhibitor concentrations confirmed that the model was also an appropriate explanation for the mutant transporter (Fig 7C to 7F).
Drug transport assays were performed as previously described. Briefly, measurements of radiolabeled drug uptake were made over 1 h, unless otherwise specified. […] Where specified, one or more unlabeled drugs were also present at the indicated concentrations. The direction of drug transport in the assays is from the extracellular medium (pH 6) into the oocyte cytosol (pH 7.2), which corresponds to the efflux of CQ or PPQ from the acidic digestive vacuole (pH 5.2) into the parasite cytosol (pH 7.2). The uptake assays were terminated by removing the oocytes from the reaction medium and washing them three times with 2 mL of ice-cold ND96 buffer. Each oocyte was transferred to a separate scintillation vial and lysed by the addition of 200 μL of a 5% SDS solution. The radioactivity in the sample was measured using a liquid scintillation analyser Tri-Carb 4910 TR (PerkinElmer). Water-injected oocytes were analyzed in parallel as a negative control. The buffer from each condition was measured in duplicate in parallel to each experiment to transform counts per minute into pmol of drug. Drug uptake attributable to PfCRT was determined by subtracting the background uptake from water-injected oocytes from that of PfCRT-expressing oocytes. In all cases, at least three independent experiments were performed on oocytes from different frogs, and for each condition in an experiment, measurements were made from 10 oocytes per treatment.
The following equations were adopted from Segel (1993), and the reader is referred to that text for the assumptions made in the author’s approach in the derivation of each equation [31]. The concentration of substrate is denoted as [S1] and the concentration of the inhibiting substrate is denoted as [S2]. KS1 and KS2 are the dissociation constants for the respective substrate-protein complexes.
Analyses of the kinetic data were performed using SigmaPlot version 13.0 and Python. […]

For `CCN(CC)CCCC(C)Nc1ccnc2cc(Cl)ccc12` (stereo not shown) [CQ, chloroquine], the “PfCRTDd2_F145I-mediated CQ transport” value (200 µM PPQ) was 12.08 pmol oocyte-1 h-1 and 15.16 pmol oocyte-1 h-1 and 13.13 pmol oocyte-1 h-1, the “PfCRTDd2_F145I-mediated CQ transport” value (350 µM PPQ) was 10.85 pmol oocyte-1 h-1 and 12.45 pmol oocyte-1 h-1 and 11.74 pmol oocyte-1 h-1 and the “most plausible inhibition model” value (16 models, ΔAICC, Akaike weight, secondary plots) was “partial noncompetitive inhibition”. For the same molecule, the “Vmax, maximal velocity of drug transport” value (Mixed (Partial) model, drug as radiolabeled substrate) was 34 ± 2 pmol oocyte^-1 h^-1, the Kd (Mixed (Partial) model, drug as cold inhibitor, read-out: KS, dissociation constant for the PfCRT-substrate complex) was 200 ± 90 µM and the Kd (Mixed (Partial) model, drug as radiolabeled substrate, read-out: KS, dissociation constant for the PfCRT-substrate complex) was 350 ± 50 µM. The “β, partiality factor” value (Mixed (Partial) model) was 0.41 ± 0.08, the “α, KS interaction factor” value (Mixed (Partial) model, label = radiolabeled substrate, other drug cold inhibitor) was 1.0 ± 0.3 and the “Vmax, maximal velocity of drug transport” value (Noncompetitive (Partial) model, drug as radiolabeled substrate, other drug as cold inhibitor) was 34 pmol oocyte^-1 h^-1 and 34 ± 2 pmol oocyte^-1 h^-1. The Kd (Noncompetitive (Partial) model, drug as cold inhibitor, read-out: KS, dissociation constant for the PfCRT-substrate complex) was 225 µM and 230 µM, the Kd (Noncompetitive (Partial) model, drug as radiolabeled substrate, read-out: KS, dissociation constant for the PfCRT-substrate complex) was 357 µM and 360 µM and the “β, partiality factor” value (Noncompetitive (Partial) model) was 0.40 and 0.40 ± 0.04. The “KMapp ([3H]CQ + PPQ)” value ([PPQ] 0 µM) was 355.22 µM, the “Vmaxapp ([3H]CQ + PPQ)” value ([PPQ] 0 µM) was 32.70 pmol oocyte-1 h-1 and the “Vmaxapp/KMapp ([3H]CQ + PPQ)” value ([PPQ] 0 µM) was 0.0962 h⁻¹. The “KMapp ([3H]CQ + PPQ)” value ([PPQ] 50 µM) was 351.46 µM, the “Vmaxapp ([3H]CQ + PPQ)” value ([PPQ] 50 µM) was 27.98 pmol oocyte-1 h-1 and the “Vmaxapp/KMapp ([3H]CQ + PPQ)” value ([PPQ] 50 µM) was 0.0844 h⁻¹. The “KMapp ([3H]CQ + PPQ)” value ([PPQ] 125 µM) was 355.14 µM, the “Vmaxapp ([3H]CQ + PPQ)” value ([PPQ] 125 µM) was 25.60 pmol oocyte-1 h-1 and the “Vmaxapp/KMapp ([3H]CQ + PPQ)” value ([PPQ] 125 µM) was 0.0728 h⁻¹. For the same molecule, the “KMapp ([3H]CQ + PPQ)” value ([PPQ] 200 µM) was 365.31 µM, the “Vmaxapp ([3H]CQ + PPQ)” value ([PPQ] 200 µM) was 21.83 pmol oocyte-1 h-1 and the “Vmaxapp/KMapp ([3H]CQ + PPQ)” value ([PPQ] 200 µM) was 0.0619 h⁻¹. The “KMapp ([3H]CQ + PPQ)” value ([PPQ] 350 µM) was 375.85 µM, the “Vmaxapp ([3H]CQ + PPQ)” value ([PPQ] 350 µM) was 19.75 pmol oocyte-1 h-1 and the “Vmaxapp/KMapp ([3H]CQ + PPQ)” value ([PPQ] 350 µM) was 0.0554 h⁻¹. For the same molecule, the “KMapp ([3H]CQ + PPQ)” value ([PPQ] 500 µM) was 353.13 µM, the “Vmaxapp ([3H]CQ + PPQ)” value ([PPQ] 500 µM) was 17.90 pmol oocyte-1 h-1 and the “Vmaxapp/KMapp ([3H]CQ + PPQ)” value ([PPQ] 500 µM) was 0.0540 h⁻¹. The “β^CQ, partiality factor” value (fractional velocity plot, factor by which PPQ reduces the transport velocity of CQ) was 0.31 ± 0.04, the Kd (secondary plot, half-maximal inhibitory concentration of Vmax,app versus inhibitor concentration, read-out: αKS, dissociation constant between the drug and the PfCRT complex with the other drug) was 210 ± 120 µM and the Kd (secondary plot, half-maximal inhibitory concentration of Vmax,app/KM,app versus inhibitor concentration, read-out: KS, dissociation constant between the drug and PfCRT) was 250 ± 150 µM. The “α (αKS divided by KS)” value (secondary plots, label = prebound drug) was 1.0 ± 0.3.
